# Read-outs that look alike come from different tables or passages of the source.
# How the values were obtained:
# [1] = system: MRSA 456/11; assay: MIC microdilution, hospital MRSA; type: cell-based; conditions: Staphylococcus aureus
# [2] = system: S. aureus ATCC 25923; assay: MIC microdilution; type: cell-based; conditions: Staphylococcus aureus
# [3] = system: MRSE 468/11; assay: MIC microdilution, hospital MRSE; type: cell-based; conditions: Staphylococcus epidermidis
# [4] = system: MRSE 470/11; assay: MIC microdilution, hospital MRSE; type: cell-based; conditions: Staphylococcus epidermidis
# [5] = system: MRSE 489/11; assay: MIC microdilution, hospital MRSE; type: cell-based; conditions: Staphylococcus epidermidis
# [6] = system: MRSA 514/11; assay: MIC microdilution, hospital MRSA; type: cell-based; conditions: Staphylococcus aureus
# [7] = system: MRSE 469/11; assay: MIC microdilution, hospital MRSE; type: cell-based; conditions: Staphylococcus epidermidis
# [8] = system: S. epidermidis ATCC 12228; assay: MIC microdilution; type: cell-based; conditions: Staphylococcus epidermidis
# [9] = system: MRSA 522/12; assay: MIC microdilution, hospital MRSA; type: cell-based; conditions: Staphylococcus aureus
# [10] = system: S. epidermidis ATCC 35984; assay: MIC microdilution; type: cell-based; conditions: Staphylococcus epidermidis
# [11] = system: MRSA 585/12; assay: MIC microdilution, hospital MRSA; type: cell-based; conditions: Staphylococcus aureus
# [12] = system: MRSA 572/12; assay: MIC microdilution, hospital MRSA; type: cell-based; conditions: Staphylococcus aureus
# [13] = system: MRSE 459/11; assay: MIC microdilution, hospital MRSE; type: cell-based; conditions: Staphylococcus epidermidis
# [14] = system: LoVo/dx; assay: Antiproliferative SRB assay, LoVo/dx; type: cell-based, human; conditions: for IC50: Homo sapiens, LoVo/DX, 72 h, read-out: IC50 LoVo/dx; for IR LoVo/DX: IR = IC50 LoVo/dx / IC50 LoVo; for SI LoVo/DX: SI = IC50 BALB/3T3 / IC50 LoVo/dx
# [15] = hospital MRSA strain 456/11, read-out: MIC
# [16] = ATCC25923, S. aureus ATCC 25923, 18 h, 35 °C, read-out: MIC
# [17] = hospital MRSE strain 468/11, read-out: MIC
# [18] = hospital MRSE strain 470/11, read-out: MIC
# [19] = hospital MRSE strain 489/11, read-out: MIC
# [20] = hospital MRSA strain 514/11, read-out: MIC
# [21] = hospital MRSE strain 469/11, read-out: MIC
# [22] = ATCC12228, S. epidermidis ATCC 12228, 18 h, 35 °C, read-out: MIC
# [23] = hospital MRSA strain 522/12, read-out: MIC
# [24] = ATCC35984, S. epidermidis ATCC 35984, 18 h, 35 °C, read-out: MIC
# [25] = hospital MRSA strain 585/12, read-out: MIC
# [26] = hospital MRSA strain 572/12, read-out: MIC
# [27] = hospital MRSE strain 459/11, read-out: MIC
SMILES,"MIC [1, 15] [µg/mL]","MIC [2, 16] [µg/mL]","MIC [3, 17] [µg/mL]","MIC [4, 18] [µg/mL]","MIC [5, 19] [µg/mL]","MIC [6, 20] [µg/mL]","MIC [7, 21] [µg/mL]","MIC [8, 22] [µg/mL]","MIC [9, 23] [µg/mL]","MIC [10, 24] [µg/mL]","MIC [11, 25] [µg/mL]","MIC [12, 26] [µg/mL]","MIC [13, 27] [µg/mL]",IC50 [14] [µM],IR LoVo/DX [14],SI LoVo/DX [14],other results
CC[C@H](C(=O)NCc1ccc(F)cc1)C1CC[C@H](C)C([C@@H](C)[C@H](O)[C@H](C)C(=O)[C@H](CC)C2O[C@]3(C=C[C@@H](O)C4(CC[C@@](C)(C5CC[C@](O)(CC)[C@H](C)O5)O4)O3)[C@H](C)C[C@@H]2C)O1 (stereo partly drawn) [F-p],16,32,64,32,32,32,64,16,32,32,32,32,32,3.29 ± 0.91,0.53,2.62,–
CC[C@H](C(=O)NCc1ccc([N+](=O)[O-])cc1)C1CC[C@H](C)C([C@@H](C)[C@H](O)[C@H](C)C(=O)[C@H](CC)C2O[C@]3(C=C[C@@H](O)C4(CC[C@@](C)(C5CC[C@](O)(CC)[C@H](C)O5)O4)O3)[C@H](C)C[C@@H]2C)O1 (stereo partly drawn) [NO2-p],128,128,128,256,256,128,256,128,128,128,256,128,128,20.4 ± 8.63,1.53,0.34,–
"CC[C@@H](C(=O)[C@@H](C)[C@@H](O)[C@H](C)[C@@H]1O[C@@H]([C@@H](CC)C(=O)O)CC[C@@H]1C)[C@H]1O[C@]2(C=C[C@@H](O)[C@]3(CC[C@@](C)([C@H]4CC[C@](O)(CC)[C@H](C)O4)O3)O2)[C@H](C)C[C@@H]1C [SAL, Salinomycin]",–,–,–,–,–,–,–,–,–,–,–,–,–,0.81 ± 0.32,1.72,16.07,"MIC ([1]; MRSA): 16 µg/mL; MIC ([2]; ATCC25923, 18 h): 2 µg/mL; MIC ([3]; MRSE): 16 µg/mL; MIC ([4]; MRSE): 16 µg/mL; MIC ([5]; MRSE): 16 µg/mL; MIC ([6]; MRSA): 8 µg/mL; MIC ([7]; MRSE): 16 µg/mL; MIC ([8]; ATCC12228, 18 h): 2 µg/mL; MIC ([9]; MRSA): 16 µg/mL; MIC ([10]; ATCC35984, 18 h): 2 µg/mL; MIC ([11]; MRSA): 16 µg/mL; MIC ([12]; MRSA): 16 µg/mL; MIC ([13]; MRSE): 16 µg/mL"
